Data on 6 compounds can be found in ChEMBL document CHEMBL5385932, “Highly Concentrated Linear Guanidine Amides from the Marine Sipunculid Phascolosoma granulatum” (J Nat Prod, 2024).

In data set [1] the test system is HepG2. The experiment in a line: Cytotoxicity against human HepG2 cells assessed as effect on cell viability at 20 ug/ml by MTT assay. The data set is classed as functional, cell-based. The note with it: dose 20.0 µg/ml. For orientation: Tetrazolium dyes change colour on reduction, which living cells bring about.
The subject of data set [2] is Pichia kudriavzevii. As to the kind of experiment: Antifungal activity against Candida krusei ATCC6258 assessed as effect on fungal growth at 64 ug/ml. The data set is classed as functional, organism-based. Conditions: dose 64.0 µg/ml.
The test system of data set [3] is Candida parapsilosis. The experiment in a line: Antifungal activity against Candida parapsilosis ATCC22019 assessed as effect on fungal growth at 64 ug/ml. It is filed as functional, organism-based. Conditions: dose 64.0 µg/ml.
Data set [4] deals with Acinetobacter baumannii. As to the kind of experiment: Antibacterial activity against Acinetobacter baumannii ATCC19606 assessed as effect on bacterial growth at 64 ug/ml. The data set is classed as functional, organism-based. The note with it: dose 64.0 µg/ml.
Data set [5] deals with MCF7. The experiment in a line: Cytotoxicity against human MCF7 cells assessed as effect on cell viability at 20 ug/ml by MTT assay. The note with it: dose 20.0 µg/ml. The data set is classed as functional, cell-based.
The test system of data set [6] is A2058. The experiment in a line: Cytotoxicity against human A2058 cells assessed as effect on cell viability at 20 ug/ml by MTT assay. The data set is classed as functional, cell-based. The note with it: dose 20.0 µg/ml.
In data set [7] the test system is Staphylococcus aureus. The experiment in a line: Antibacterial activity against methicillin-susceptible Staphylococcus aureus ATCC29213 assessed as effect on bacterial growth at 64 ug/ml. It is filed as functional, organism-based. The note with it: dose 64.0 µg/ml.
Data set [8] relates to MIA PaCa-2. As to the kind of experiment: Cytotoxicity against human MIA PaCa-2 cells assessed as effect on cell viability at 20 ug/ml by MTT assay. It is filed as functional, cell-based. The note with it: dose 20.0 µg/ml.
In data set [9] the test system is A549. As to the kind of experiment: Cytotoxicity against human A549 cells assessed as effect on cell viability at 20 ug/ml by MTT assay. The data set is classed as functional, cell-based. The note with it: dose 20.0 µg/ml.
Data set [10] concerns Artemia salina. The experiment in a line: Toxicity in brine shrimp assessed as lethality at 500 uM measured after 24 to 48 hrs by microscopy. It is filed as organism-based. The note with it: in vivo, time 24-48 hrs.
The subject of data set [11] is Escherichia coli. The experiment in a line: Antibacterial activity against Escherichia coli ATCC25922 assessed as effect on bacterial growth at 64 ug/ml. It is filed as functional, organism-based. The note with it: dose 64.0 µg/ml.
The test system of data set [12] is Candida tropicalis. The experiment in a line: Antifungal activity against Candida tropicalis ATCC750 assessed as effect on fungal growth at 64 ug/ml. The note with it: dose 64.0 µg/ml. The data set is classed as functional, organism-based.
For data set [13], the system named is Nakaseomyces glabratus. The experiment in a line: Antifungal activity against Candida glabrata ATCC2001 assessed as effect on fungal growth at 64 ug/ml. It is filed as functional, organism-based. The note with it: dose 64.0 µg/ml.
The test system of data set [14] is Aspergillus fumigatus. As to the kind of experiment: Antifungal activity against Aspergillus fumigatus ATCC46645 assessed as effect on fungal growth at 64 ug/ml. It is filed as functional, organism-based. Conditions: dose 64.0 µg/ml.
Data set [15] deals with Candida albicans. As to the kind of experiment: Antifungal activity against Candida albicans ATCC64124 assessed as effect on fungal growth at 64 ug/ml. The note with it: dose 64.0 µg/ml. It is filed as functional, organism-based.

Active and inactive are the calls of the source. No cut-off for these calls is given here.

For `CC(C)CC[C@@H](C)C(=O)NCCCCNC(=N)N.O=C(O)C(F)(F)F`, the outcome in data set [1], in [2], in data set [3], in data set [4], in data set [5] and in data set [6] was inactive. Besides, the outcome in [7], in [8], in [9], in data set [11], in data set [12] and in data set [13] was inactive. Further, the outcome in data set [14] and in data set [15] was inactive. Also, the Activity entry in [10] is on record as “Non-Toxic”.
With `CC(C)CC[C@@H](C)C(=O)N(C)CCCCNC(=N)N.O=C(O)C(F)(F)F`, the result in data set [1], in [2], in data set [3], in data set [4], in data set [5] and in [6] was inactive. Besides, the result in [7], in data set [8], in data set [9], in [11], in data set [12] and in data set [13] was inactive. Further, the result in data set [14] and in data set [15] was inactive. Moreover, the Activity result in data set [10] was “Non-Toxic”.
For the compound `C/C(=C/CCC(C)C)C(=O)NCCCCNC(=N)N.O=C(O)C(F)(F)F`, the result in data set [1], in data set [2], in data set [3], in data set [4], in [5] and in data set [6] was inactive. Further, the outcome in data set [7], in data set [8], in data set [9], in data set [11], in data set [12] and in data set [13] was inactive. The result in data set [14] and in data set [15] was inactive. Besides, in data set [10], the Activity entry is listed as “Non-Toxic”.
Take `CC(C)CC(=O)N(C)CCCCNC(=N)N.O=C(O)C(F)(F)F`: the result in [1], in data set [5], in data set [6], in data set [8] and in [9] was inactive. In addition, the Activity entry in [10] was “Non-Toxic”.
For the compound `CC(C)CC[C@@H](C)C(=O)NCCCNC(=N)N.O=C(O)C(F)(F)F`, the result in data set [1], in data set [2], in [3], in data set [4], in data set [5] and in [6] was inactive. Besides, the result in data set [7], in data set [8], in [9], in data set [11], in data set [12] and in data set [13] was inactive. The outcome in data set [14] and in data set [15] was inactive. In addition, the Activity result in [10] is on record as “Non-Toxic”.
`CC(C)C[C@H](O)CC/C=C\CNC(=O)CCNC(=N)N.O=C(O)C(F)(F)F`: the outcome in data set [1], in [5], in data set [6], in data set [8] and in data set [9] was inactive. Besides, the Activity result in data set [10] is “Non-Toxic”.
